Experimental data as given in PMC3242434 (Bioorganic & medicinal chemistry letters, 2011).
pIC50: −log10 of the molar value.

How the values were obtained:
[1] = test system: Hsp90; assay: Western blot analyses of Hsp90 client protein degradation in MCF-7 cells; format: cell-based
[2] = test system: MCF7 breast cancer cell-line; assay: Anti-proliferative activity against MCF7 breast cancer cell-line; format: cell-based; conditions: Homo sapiens, MCF7, read-out: IC50 against MCF-7

Compound: COc1ccc(Oc2ccc3cc(NC(=O)c4ccc(O)c(CC=C(C)C)c4)c(=O)oc3c2C)cc1 [Compound 14]
- Hsp90 client protein degradation [1]: client protein degradation was observed
- Hsp90 induction (heat shock response) [1]: no Hsp90 induction was seen

Compound: COc1ccc(Cc2ccc3cc(NC(=O)c4ccc(OC(C)=O)c(CC=C(C)C)c4)c(=O)oc3c2C)cc1 [Compound 43]
- Hsp90 client protein degradation [1]: client protein degradation was observed
- Hsp90 induction (heat shock response) [1]: no Hsp90 induction was seen

Compound: COc1ccc(Cc2ccc3cc(NC(=O)c4ccc(O)c(CC=C(C)C)c4)c(=O)oc3c2C)cc1OC [Compound 48]
- pIC50 [2]: ~4.89
